The results in this text go back to patent publication US20240034729A9, “HETEROCYCLIC COMPOUND, INTERMEDIATE, PREPARATION METHOD THEREFOR AND APPLICATION THEREOF” (WUHAN LL SCIENCE AND TECHNOLOGY DEVELOPMENT CO., LTD., priority 2018, published 2024).

Like-named read-outs stand apart in the source and are kept apart here.

A short description of series [1]: In vitro metabolic stability, guinea pig liver microsome. To be noted: liver microsomes, 1 mg/mL liver microsome protein, 37° C., NA = essentially not metabolized, read-out: T1/2 in guinea pig liver microsome. The format is in vitro ADME. On the procedure:
(§1) The in vitro metabolic stability of the compounds disclosed herein was determined through incubation of liver microsomes of various species. A proper amount of test compound was added into a liver microsome reaction system (1 mg/mL liver microsome protein, 25 U/mL glucose-6 phosphate dehydrogenase, 1 mM NADP, 6 mM D-glucose 6-phosphate and 5 mM MgCl2), and then the mixture was incubated in a water bath kettle at 37° C. to start the reaction. At each time point, 100 μL of the reaction mixture was added into a centrifuge tube containing 400 μL of internal standard working solution (containing a 200 ng/mL solution of dexamethasone, diclofenac, tolbutamide and labetalol in acetonitrile) precooled at 0° C. so as to terminate the reaction, and the mixture was then centrifuged at 10,000 g for 10 min at 4° C. The supernatant was collected for LC-MS assay so as to obtain the values of in vitro metabolic half-life of the test compounds in liver microsomes of various species.

For series [2], the target named is hP2X3 (human purinergic P2X receptor subtype 3) (Homo sapiens (Human), UniProt P56373). Kind of series: FLIPR calcium assay, hP2X3 expressed in HEK293 cells. It counts as cell-based. To be noted: read-out: P2X3 IC50.
Series [3] in a line: In vitro metabolic stability, rat liver microsome. The format is in vitro ADME. To be noted: liver microsomes, 1 mg/mL liver microsome protein, 37° C., NA = essentially not metabolized, read-out: T1/2 in rat liver microsome. On the procedure:
as §1, with “A proper amount of test compound was added into a liver microsome reaction system (1 mg/mL liver microsome protein, 25 U/mL glucose-6 phosphate dehydrogenase, 1 mM NADP, 6 mM D-glucose 6-phosphate and 5 mM MgCl2), and then the mixture was incubated in a water bath kettle at 37° C. to start the reaction.” left out
(In general: Liver microsomes are vesicles of endoplasmic reticulum, rich in cytochrome P450 enzymes.)

Series [4] in a line: In vitro metabolic stability, human liver microsome. It counts as in vitro ADME. To be noted: liver microsomes, 1 mg/mL liver microsome protein, 37° C., NA = essentially not metabolized, read-out: T1/2 in human liver microsome. The procedure: as §1, with “A proper amount of test compound was added into a liver microsome reaction system (1 mg/mL liver microsome protein, 25 U/mL glucose-6 phosphate dehydrogenase, 1 mM NADP, 6 mM D-glucose 6-phosphate and 5 mM MgCl2), and then the mixture was incubated in a water bath kettle at 37° C. to start the reaction.” left out

Series [5] in a line: In vitro cytotoxicity assay, CCK-8 method. It counts as cell-based. To be noted: human, HepG2 cells. The procedure:
In vitro cytotoxicity assay for the compounds disclosed herein was performed in HepG2 cells using the CCK-8 method. HepG2 cells (Beina Bio) in the logarithmic growth phase were collected, the concentration of cell suspension was adjusted, and then the cells were plated on a 96-well cell culture plate at 50,000 cells/well. The cells were then incubated overnight in a cell incubator of 5% […] at 37° C., and after 80-90% cell confluence was achieved, test compounds or vehicle (DMSO) at various concentration gradients were added after medium change. The plate was incubated in a cell incubator of 5% […] at 37° C. for 48 h. After the treatment, the medium in the plate was discarded. The plate was washed twice with PBS, added with CCK-8 working solution (Beyotime) at 100 μL per well, and then incubated at 37° C. for 1.5 h away from light. Absorbance at OD450nm was measured for each well on a microplate reader, and CC50 value of each compound was analyzed and calculated.
A general note: Tetrazolium dyes change colour on reduction, which living cells bring about.

Series [6] concerns the target hP2X2/3 (heterodimeric receptors formed by human purinergic P2X receptors subtype 2 and subtype 3) (Homo sapiens (Human), UniProt P56373+Q9UBL9). Kind of series: FLIPR calcium assay, hP2X2/3 expressed in HEK293 cells (P2X2/3 receptor selectivity). It counts as cell-based. To be noted: for IC50: HEK293 cells expressing hP2X2/3, agonist BZ-ATP 5 μM, unit inferred.

Chain of hP2X2/3 (heterodimeric receptors formed by human purinergic P2X receptors subtype 2 and subtype 3) (P56373 whole entry): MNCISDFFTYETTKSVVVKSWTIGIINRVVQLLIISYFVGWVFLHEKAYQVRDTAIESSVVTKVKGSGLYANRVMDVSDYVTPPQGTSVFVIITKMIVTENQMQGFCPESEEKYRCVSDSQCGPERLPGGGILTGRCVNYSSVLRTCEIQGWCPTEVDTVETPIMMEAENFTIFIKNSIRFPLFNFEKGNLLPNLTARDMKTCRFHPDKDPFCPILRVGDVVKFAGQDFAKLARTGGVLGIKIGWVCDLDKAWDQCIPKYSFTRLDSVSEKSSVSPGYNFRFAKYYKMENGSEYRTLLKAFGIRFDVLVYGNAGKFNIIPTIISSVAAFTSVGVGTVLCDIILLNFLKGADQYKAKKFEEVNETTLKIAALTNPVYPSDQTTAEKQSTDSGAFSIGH
Chain of hP2X2/3 (heterodimeric receptors formed by human purinergic P2X receptors subtype 2 and subtype 3) (Q9UBL9 whole entry): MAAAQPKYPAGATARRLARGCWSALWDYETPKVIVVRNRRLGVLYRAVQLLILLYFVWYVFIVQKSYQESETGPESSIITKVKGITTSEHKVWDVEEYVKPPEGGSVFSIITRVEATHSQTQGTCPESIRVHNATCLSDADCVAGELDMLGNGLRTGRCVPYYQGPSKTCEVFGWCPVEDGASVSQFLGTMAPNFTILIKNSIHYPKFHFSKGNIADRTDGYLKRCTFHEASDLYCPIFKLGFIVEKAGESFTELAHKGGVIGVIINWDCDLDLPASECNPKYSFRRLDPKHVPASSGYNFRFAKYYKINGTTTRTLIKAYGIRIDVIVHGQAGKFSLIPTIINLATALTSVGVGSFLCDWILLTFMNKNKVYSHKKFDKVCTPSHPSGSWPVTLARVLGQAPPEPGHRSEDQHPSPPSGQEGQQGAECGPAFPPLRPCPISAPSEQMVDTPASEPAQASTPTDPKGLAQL
Chain of hP2X3 (human purinergic P2X receptor subtype 3) (P56373 whole entry): as the sequence (P56373 whole entry) above

Regarding `COC(=O)N1CCO[C@@H](Cc2c(-c3c(F)cc(S(N)(=O)=O)cc3F)nc3cc(C)ccn23)C1` [Compound 171, methyl (S)-2-((2-(2,6-difluoro-4-sulfamoylphenyl)-7-methylimidazo[1,2-a]pyridin-3-yl)methyl)morpholine-4-carboxylate], the half-life in series [1] was 2.33 h; in series [3] it was 0.141 h; in series [4], 8.72 h. In addition, the figures for the 50% inhibitory concentration (IC50) in series [2] and in series [6] were 0.0021 µM and 36.8 µM, respectively. In addition, in series [5], the CC50 (usually the concentration at which the toxic effect on the cells reaches its halfway point) at 48 h stood at 200 µM. For the same compound, the Folds of selectivity in series [6] was 45975.
With `COC(=O)N1CCO[C@@H](Cc2c(-c3c(F)cc(N4C(=O)CCC4=O)cc3F)nc3cc(C)ccn23)C1` [Compound 26, methyl (S)-2-((2-(4-(2,5-dioxopyrrolidin-1-yl)-2,6-difluorophenyl)-7-methylimidazo[1,2-a]pyridin-3-yl)methyl)morpholine-4-carboxylate], the half-life was found to be 2.13 h in series [1], 1.35 h in series [3] and 4.22 h in series [4]. Also, in series [2] (HEK293 cells expressing hP2X3, agonist BZ-ATP 2.5 μM, class symbols), the IC50 (as a rule, the point on the concentration scale where inhibition reaches its midpoint) was in the range of 0.05 to 0.2 µM. Besides, the CC50 at 48 h in series [5] was > 100 µM.
With `COC(=O)Nc1cc(F)c(-c2nc3cc(C)ccn3c2C[C@H]2CN(C(=O)OC)CCO2)c(F)c1` [Compound 3, methyl (S)-2-((2-(2,6-difluoro-4-(methoxycarbonylamino)phenyl)-7-methylimidazo[1,2-a]pyridin-3-yl)-methyl)morpholine-4-carboxylate], the half-life is 0.842 h in series [1], 0.479 h in series [3] and 4.34 h in series [4]. For the same compound, the IC50 in series [2] was 0.01 to 0.05 µM; in series [6] it was > 60 µM. In series [5], this compound displayed a CC50 at 48 h of 59.3 µM. The Folds of selectivity entry in series [6] is given as “A (key: A: folds of selectivity >1000; B: 200< folds of selectivity ≤1000; C: folds of selectivity ≤200)”.
On to `COC(=O)N1CCO[C@@H](Cc2c(-c3cc(F)c(S(N)(=O)=O)cc3Cl)nc3cc(Cl)ccn23)C1` [Compound 181, methyl (S)-2-((7-chloro-2-(2-chloro-5-fluoro-4-sulfamoylphenyl)imidazo[1,2-a]pyridin-3-yl)methyl)morpholine-4-carboxylate], for which the half-life turned out to be 3.91 h in series [1], 3.13 h in series [3] and 23.3 h in series [4]. Further, the IC50 in series [2] came to 0.0018 µM. The same compound showed a CC50 at 48 h in series [5] of 138 µM.
As to `COC(=O)N1CCO[C@@H](Cc2c(-c3c(F)cc(-c4cccn4C)cc3F)nc3cc(C)ccn23)C1` [Compound 13, methyl (S)-2-((2-(2,6-difluoro-4-(1-methyl-1H-pyrrol-2-yl)phenyl)-7-methylimidazo[1,2-a]pyridin-3-yl)methyl)morpholine-4-carboxylate], the results for the half-life in series [1], in series [3] and in series [4] were 0.0375 h, 0.0373 h and 1.03 h, respectively. In series [5], this compound yielded a cytotoxic concentration (CC50) at 48 h of 66.5 µM.
In the case of `COC(=O)N1CCO[C@@H](Cc2c(-c3c(F)cc(S(N)(=O)=O)cc3F)nc3cc(C)c(F)cn23)C1` [Compound 182, methyl (S)-2-((2-(2,6-difluoro-4-sulfamoylphenyl)-6-fluoro-7-methylimidazo[1,2-a]pyridin-3-yl)methyl)morpholine-4-carboxylate], the half-life was 1.02 h in series [1], 0.182 h in series [3] and 3.62 h in series [4]. In addition, the IC50 in series [2] was 0.0035 µM. Besides, the CC50 at 48 h in series [5] was > 200 µM.
For `COC(=O)N1CCO[C@@H](Cc2c(-c3ccc(S(N)(=O)=O)cc3C)nc3cc(C)ccn23)C1` [Compound 184, methyl (S)-2-((7-methyl-2-(2-methyl-4-sulfamoylphenyl)imidazo[1,2-a]pyridin-3-yl)methyl)morpholine-4-carboxylate], the half-life in series [1] was determined as 2.89 h; in series [3], 0.0943 h; in series [4], 406 h. In addition, the 50% inhibitory concentration (IC50) in series [2] is 0.0056 µM. Besides, in series [5], the half-maximal cytotoxic concentration (CC50) at 48 h is > 200 µM.
`COC(=O)N1CCO[C@@H](Cc2c(-c3c(F)cc(N4CC=CC4=O)cc3F)nc3cc(C)ccn23)C1` [Compound 169, methyl (S)-2-((2-(2,6-difluoro-4-(2-carbonyl-2,5-dihydro-1H-pyrrol-1-yl)phenyl)-7-methylimidazo[1,2-a]pyridin-3-yl)methyl)morpholine-4-carboxylate]: the figures for the half-life in series [1], in series [3] and in series [4] were 2.74 h, 0.591 h and 13.8 h, respectively. Further, the CC50 at 48 h in series [5] was > 100 µM. Moreover, in series [6], the Folds of selectivity entry is recorded as “A (key: A: folds of selectivity >1000; B: 200< folds of selectivity ≤1000; C: folds of selectivity ≤200)”. The IC50 in series [6] is > 60 µM.
Turning to `COC(=O)N1CCO[C@@H](Cc2c(-c3c(F)cc(-n4ccnc4)cc3F)nc3cc(C)ccn23)C1` [Compound 5, methyl (S)-2-((2-(2,6-difluoro-4-(1H-imidazol-1-yl)phenyl)-7-methylimidazo[1,2-a]pyridin-3-yl)methyl)morpholine-4-carboxylate], the half-life in series [1] came to 0.794 h; in series [3], 0.622 h; in series [4] it was 10.8 h. In series [5], this compound yielded a CC50 at 48 h of 72 µM.
For `COC(=O)N1CCO[C@@H](Cc2c(-c3c(F)cc(-c4ccco4)cc3F)nc3cc(C)ccn23)C1` [Compound 11, methyl (S)-2-((2-(2,6-difluoro-4-(furan-2-yl)phenyl)-7-methylimidazo[1,2-a]pyridin-3-yl)methyl)morpholine-4-carboxylate] the same measures were 0.0712 h, 0.0942 h, 2.52 h and 79.4 µM.
Take `COC(=O)N1CCO[C@@H](Cc2c(-c3ccc(S(N)(=O)=O)cc3Cl)nc3cc(C)ccn23)C1` [Compound 176, methyl (S)-2-((2-(2-chloro-4-sulfamoylphenyl)-7-methylimidazo[1,2-a]pyridin-3-yl)methyl)morpholine-4-carboxylate]: the half-life in series [1] worked out at 1.02 h; in series [3], 0.0602 h; in series [4], 3.93 h. Further, the IC50 in series [2] amounted to 0.0075 µM. Further, the CC50 at 48 h in series [5] is > 200 µM.
For the compound `COC(=O)N1CCO[C@@H](Cc2c(-c3c(F)cc(-c4ncco4)cc3F)nc3cc(C)ccn23)C1` [Compound 10, methyl (S)-2-((2-(2,6-difluoro-4-(oxazol-2-yl)phenyl)-7-methylimidazo[1,2-a]pyridin-3-yl)methyl)morpholine-4-carboxylate], the half-life is 0.225 h in series [1], 0.513 h in series [3] and 3.71 h in series [4]. Also, the 50% cytotoxic concentration (CC50) at 48 h in series [5] came to 15.8 µM.
Consider `COC(=O)N1CCO[C@@H](Cc2c(-c3c(F)cc(S(C)(=O)=O)cc3F)nc3cc(C)ccn23)C1` [Compound 175, methyl (S)-2-((2-(2,6-difluoro-4-(methylsulfonyl)phenyl)-7-methylimidazo[1,2-a]pyridin-3-yl)methyl)morpholine-4-carboxylate], for which the half-life in series [1], in series [3] and in series [4] was > 0.5 h each time. The IC50 in series [2] is > 10 µM.
Take `COC(=O)N1CCO[C@@H](Cc2c(-c3c(F)cc(-c4cccs4)cc3F)nc3cc(C)ccn23)C1` [Compound 12, methyl (S)-2-((2-(2,6-difluoro-4-(thiophen-2-yl)phenyl)-7-methylimidazo[1,2-a]pyridin-3-yl)methyl)morpholine-4-carboxylate]: the results for the half-life in series [1], in series [3] and in series [4] were 0.126 h, 0.13 h and 1.53 h, respectively. The compound also displayed a CC50 at 48 h in series [5] of 52.7 µM.
